Source: patent EP4603105A1, “PHARMACEUTICAL COMPOSITION CONTAINING CYCLIC COMPOUND HAVING SELECTIVE KRAS INHIBITORY EFFECT AGAINST HRAS AND NRAS” (CHUGAI SEIYAKU KABUSHIKI KAISHA, priority 2022, dated 2024)
Where two headings read alike, the source gives them in different places. *1 amine or outer side, *2 acyl side, *3 side chain or, on linkers, in order; H or OH if unused. Where a SMILES comes first, the peptide text is derived from it. Bridges are numbered along the chain shown (N, C = ends). [ ]: non-standard residue; d: D form. The star is where a group is joined. hPhe(3-Cl-4-CF3) = N[C@@H](CCc1ccc(C(F)(F)F)c(Cl)c1)C(=O)O; NPrPhe(4-CF3) = CCCN[C@@H](Cc1ccc(C(F)(F)F)cc1)C(=O)O; NMeGly(cPent) = CN[C@H](C(=O)O)C1CCCC1; NMeD = CN[C@@H](CC(=O)O)C(=O)O; NMeL = CN[C@@H](CC(C)C)C(=O)O; X20 = O=C(CN(CCF)[*:1])[*:2]; Morpholide = C1CN(*)CCO1; Ac5c = NC1(C(=O)O)CCCC1; Sar = CNCC(=O)O

Assays:
[1] = target: GDP-bound NRAS wild-type protein (Homo sapiens, UniProt P01111); experiment: Binding to NRAS by surface plasmon resonance (SPR), KD and KD ratio to KRAS
Summary of the method: (§1)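 Measured at 30°C: SPR with GDP-loaded, E. coli-expressed biotin-Avi RAS captured (~100–300 RU), ascending 75 s compound injections, HBS pH 7.4 with GDP, MgCl2, 4% DMSO. KD from 1:1 fit.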

HRAS wild-type protein = HRAS wild-type protein (Homo sapiens, UniProt P01112); experiment: Binding to HRAS by surface plasmon resonance (SPR), KD and KD ratio to KRAS
Summary of the method: as §1

[2] = test system: human lung cancer strain NCI-H441; type: cell-based
Summary of the method: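 Signal came from […] measured per well once the reagent was added. Beforehand, cells were cultured at 37°C and 5% carbon dioxide on a compound series serially diluted in dimethyl sulfoxide.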

[3] = ratio of the KD value with respect to GDP-bound NRAS wild-type protein to the KD value with respect to KRAS
[4] = ratio of the KD value with respect to HRAS wild-type protein to the KD value with respect to KRAS
[5] = ratio of KD for GDP-bound NRAS wild-type protein to KD for KRAS
[6] = ratio of KD for HRAS wild-type protein to KD for KRAS

Chain of HRAS wild-type protein (P01112 whole entry): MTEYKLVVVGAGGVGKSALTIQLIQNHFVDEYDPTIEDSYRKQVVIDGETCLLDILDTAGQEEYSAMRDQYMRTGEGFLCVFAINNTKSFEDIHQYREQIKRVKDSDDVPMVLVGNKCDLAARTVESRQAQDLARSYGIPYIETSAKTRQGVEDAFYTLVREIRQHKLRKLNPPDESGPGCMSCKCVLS
Chain of GDP-bound NRAS wild-type protein (P01111 whole entry): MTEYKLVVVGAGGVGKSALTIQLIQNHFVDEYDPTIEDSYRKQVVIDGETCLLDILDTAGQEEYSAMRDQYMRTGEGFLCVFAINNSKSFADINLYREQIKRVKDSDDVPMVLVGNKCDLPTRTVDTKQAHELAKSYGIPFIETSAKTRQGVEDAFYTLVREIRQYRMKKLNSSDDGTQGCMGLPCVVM

Row | IC50 [2] [nM] | SMILES | NRAS /KRAS [1, 3] | HRAS /KRAS (HRAS wild-type protein; [4]) | NRAS /KRAS [1, 5] | HRAS /KRAS (HRAS wild-type protein; [6]) | IC50 ([2]; NCI-H441 cells, 4 days, CellTiter-Glo, read-out: NCl-H441 IC50) [nM]
1 | 11.1 | CCC[C@H]1C(=O)N[C@@H]([C@@H](C)CC)C(=O)N(C)CC(=O)N(C)[C@H]2C/C=C\CCN(C2=O)[C@@H](Cc2ccc(C)cc2)C(=O)N(C)CC(=O)N[C@@H](CCc2ccc(C(F)(F)F)c(OC)c2)C(=O)N2C[C@H](OCC)C[C@H]2C(=O)NC2(CC(C)(C)C2)C(=O)N(C)[C@@H](C(CC)CC)C(=O)N(C)[C@H](C(=O)N(C)C)CC(=O)N1C [PP2068] | A (a compound having 10 or more and less than 20 is denoted as A) | B (a compound having 3 or more and less than 10 is denoted as B) | – | – | –
2 | 17.9 | CCOC1CC2C(=O)NC3(CCC3)C(=O)N(C)C(C(C)CC)C(=O)N(C)[C@H](C(=O)N3CCOCC3)CC(=O)N(C)[C@@H](CC(C)C)C(=O)N[C@@H]([C@@H](C)CC)C(=O)N(C)CC(=O)N(C)[C@H]3CCCCN(C3=O)[C@@H](Cc3ccc(C(F)(F)F)cc3)C(=O)N(C)CC(=O)N[C@@H](CCc3cc(F)c(C(F)(F)F)c(F)c3)C(=O)N2C1 (stereo partly drawn) [PP0812] | – | – | B (a compound having 3 or more and less than 10 is denoted as B) | B (a compound having 3 or more and less than 10 is denoted as B) | –
3 | – | CCOC[C@H]1C(=O)N[C@@H]([C@@H](C)CC)C(=O)N(C)CC(=O)N(C)[C@H]2C/C=C\CCN(C2=O)[C@@H](Cc2ccc(C(C)=O)cc2)C(=O)N(C)CC(=O)N[C@@H](CCc2ccc(C(F)(F)F)c(OC)c2)C(=O)N2C[C@@H](C)C[C@H]2C(=O)NC2(CC(C)(C)C2)C(=O)N(C)[C@@H](C2CCCC2)C(=O)N(C)[C@H](C(=O)N(C)CC)CC(=O)N1C [PP2703] | – | – | AA (a compound having 20 or more is denoted as AA) | A (a compound having 10 or more and less than 20 is denoted as A) | 80.5
4 | 25.5 | CCCN1C(=O)CN(C)C(=O)CN(CCF)C(=O)[C@H]([C@@H](C)CC)NC(=O)[C@H](CC(C)C)N(C)C(=O)C[C@@H](C(=O)N2CCOCC2)N(C)C(=O)[C@H](C2CCCC2)N(C)C(=O)C2(CCCC2)NC(=O)[C@@H]2CCCN2C(=O)[C@H](CCc2ccc(C(F)(F)F)c(Cl)c2)NC(=O)CN(C)C(=O)[C@@H]1Cc1ccc(C(F)(F)F)cc1 [PP0751] ([NMeL]I[X20][Sar][NPrPhe(4-CF3)][Sar][hPhe(3-Cl-4-CF3)]P[Ac5c][NMeGly(cPent)][NMeD]-Morpholide; lactam N-11) | B (a compound having 3 or more and less than 10 is denoted as B) | C (A compound having a KD ratio of 0.1 or more and less than 3 is denoted as C) | – | – | –
5 | 110 | CCO[C@@H]1C[C@H]2C(=O)NC3(CCC3)C(=O)N(C)[C@@H](C3CCCC3)C(=O)N(C)[C@H](C(=O)N(C)C)CC(=O)N(C)[C@@H](Cc3ccc(Cl)cc3)C(=O)N[C@@H]([C@@H](C)CC)C(=O)N(C)CC(=O)N(C)[C@H]3CCCCCN(C3=O)[C@@H](Cc3ccc(C(F)(F)F)cc3)C(=O)N(C)CC(=O)N[C@@H](CCc3cc(F)c(C(F)(F)F)c(F)c3)C(=O)N2C1 [PP0940] | – | – | B (a compound having 3 or more and less than 10 is denoted as B) | C (A compound having a KD ratio of 0.1 or more and less than 3 is denoted as C) | –
6 | 13.1 | CCO[C@@H]1C[C@H]2C(=O)NC3(CCC3)C(=O)N(C)[C@@H](C3CCCC3)C(=O)N(C)[C@H](C(=O)N(C)C)CC(=O)N(C)[C@H]3CCCCCCc4ccc(cc4)C[C@@H](C(=O)N(C)CC(=O)N[C@@H](CCc4ccc(C(F)(F)F)c(OC)c4)C(=O)N2C1)N1CC/C=C\C[C@@H](C1=O)N(C)C(=O)CN(C)C(=O)[C@H]([C@@H](C)CC)NC3=O [PP2264] | AA (a compound having 20 or more is denoted as AA) | A (a compound having 10 or more and less than 20 is denoted as A) | – | – | –
7 | 23.6 | CC[C@H](C)[C@@H]1NC(=O)[C@H](CC(C)C)N(C)C(=O)C[C@@H](C(=O)N(C)CC)N(C)C(=O)[C@H](C2CCCC2)N(C)C(=O)C2(CCC2)NC(=O)[C@@H]2C[C@@H](C)CN2C(=O)[C@H](CCc2ccc(C(F)(F)F)c(OC)c2)NC(=O)CN(C)C(=O)[C@H](Cc2ccc(C)cc2)N2CC/C=C\C[C@@H](C2=O)N(C)C(=O)CN(C)C1=O [PP1907] | AA (a compound having 20 or more is denoted as AA) | A (a compound having 10 or more and less than 20 is denoted as A) | – | – | –
8 | 58 | CCO[C@@H]1C[C@H]2C(=O)NC3(CC(C)(C)C3)C(=O)N(C)[C@@H](C(CC)CC)C(=O)N(C)[C@H](C(=O)N(C)C)CC(=O)N(C)[C@@H](C)C(=O)N[C@@H]([C@@H](C)CC)C(=O)N(C)CC(=O)N(C)[C@H]3C/C=C\CCN(C3=O)[C@@H](Cc3ccc(C)cc3)C(=O)N(C)CC(=O)N[C@@H](CCc3ccc(C(F)(F)F)c(Cl)c3)C(=O)N2C1 [PP2150] | AA (a compound having 20 or more is denoted as AA) | A (a compound having 10 or more and less than 20 is denoted as A) | – | – | –
